Experimental findings from patent publication US20230263742A1, “A LIPID” (Stemirna Therapeutics Co., Ltd., priority 2021, published 2023) are described below.

For this test, the system named is Balb/C mice. Kind of test: Luc expression in injection site and liver site after intramuscular administration (Example 5). Format: in vivo. The conditions noted are these: 5 μg Luc mRNA-LNP (DSPC) intramuscularly, Balb/C mice n=3, 6 h. Here is the method: Further bioluminescence studies were performed to investigate the delivery efficiency of nanoparticle compositions including various lipid compounds according to the present invention. The formulations containing reference cationic lipid M62, M63, M118, and M119 (corresponding to Compound 62, 63, 118, and 119 in PCT/US2018/022717 (WO2018/170306), respectively) were evaluated for comparison. Nanoparticle compositions including DSPC as an optimized phospholipid, cholesterol as a structural lipid, PEG-DMG as a PEG lipid, an RNA, and a compound above mentioned were prepared according to or via methods similar to those described in Examples 1 and 2. The ratios of the lipids were 50:10:38.5:1.5 mol % for the lipid of the present invention: DSPC: cholesterol: PEG-DMG. 5 μg of LNP solution containing luciferase mRNA was administered intramuscularly to Balb/C mice (n=3). 6 hours after administration, mice were injected intraperitoneally with 0.15 mg/kg of D-luciferin substrate. Within 15 minutes after the injection of the substrate, the fluorescence signal intensity in injection site and liver site were tested under a small animal in vivo imaging instrument. Tables 3-4 summarize the fluorescence signal intensity of the nanoparticle compositions including present invention lipids and the reference compounds in injection site and liver site.

In the case of `CCCCCCCCCOC(=O)CCCCCCCN(CCO)CCCCCCCC(=O)OCc1ccc(CCCCCC)c(CCCCCC)c1` [SW-II-115], the “Luc expression in injection site, I.M. injection site, 6 h (ratio relative to SW-II-134-3 set as 1)” value is 1.046.
Same read-out and setting: to `CCCCCCCCC(CCCCCCCC)OC(=O)CCCCCCCN(CCO)CCCCCCCC(=O)OCc1cccc(CCCCCC)c1` [SW-II-122] belongs 1.321.
Same read-out and setting: with `CCCCCCCCC(CCCCCCCC)OC(=O)CCCCCCCN(CCO)CCCCCCC(=O)OCc1ccc(CCCCCC)cc1` [SW-II-127] the figure was 1.743; with `CCCCCCCCCOC(=O)CCCCCCCN(CCO)CCCCCCCC(=O)OCCc1ccc(CCCCCC)c(CCCCCC)c1` [SW-II-134-1], 1.899.
With `CCCCCCCCCOC(=O)CCCCCCCN(CCO)CCCCCCCC(=O)OCCc1ccc(CCCCCCCC)c(CCCCCCCC)c1` [SW-II-134-2], the “Luc expression in injection site, I.M. injection site, 6 h (ratio relative to SW-II-134-3 set as 1)” value is 1.734.
Turning to `CCCCCCCCCOC(=O)CCCCCCCN(CCO)CCCCCCCC(=O)OCCc1ccc(CCCC)c(CCCC)c1` [SW-II-134-3], the “Luc expression in injection site, I.M. injection site, 6 h (ratio relative to SW-II-134-3 set as 1)” value amounted to 1.000.
The same measure, in the same setting: to `CCCCCCCCCOC(=O)CCCCCCCN(CCO)CCCCCCCC(=O)OCCCc1ccc(CCCCC)c(CCCCC)c1` [SW-II-135-1] belongs 1.771; to `CCCCCCCCCOC(=O)CCCCCCCN(CCO)CCCCCCCC(=O)OCCCc1ccc(CCCCCCC)c(CCCCCCC)c1` [SW-II-135-2], 1.028.
For `CCCCCCCCCOC(=O)CCCCCCCN(CCO)CCCCCCCC(=O)OCCCCc1ccc(CCCCCC)c(CCCCCC)c1` [SW-II-136-2], the “Luc expression in injection site, I.M. injection site, 6 h (ratio relative to SW-II-134-3 set as 1)” value stood at 1.110 and the “Luc expression in liver site, Liver site upon I.M., 6 h (ratio relative to SW-II-137-1 set as 1)” value was 1.131.
With `CCCCCCCCC(CCCCCCCC)OC(=O)CCCCCCCN(CCO)CCCCCCCC(=O)OCCCc1ccc(CCCC)cc1` [SW-II-137-1], the “Luc expression in liver site, Liver site upon I.M., 6 h (ratio relative to SW-II-137-1 set as 1)” value is given as 1.000.
Still for that read-out and setting: to `CCCCCCCCC(CCCCCCCC)OC(=O)CCCCCCCN(CCO)CCCCCCCC(=O)OCCCc1ccc(CCCCC)cc1` [SW-II-137-2] belongs 1.206.
As to `CCCCCCCCC(CCCCCCCC)OC(=O)CCCCCCCN(CCO)CCCCCCCC(=O)OCCCc1ccc(CCCCCC)cc1` [SW-II-137-3], the “Luc expression in injection site, I.M. injection site, 6 h (ratio relative to SW-II-134-3 set as 1)” value is 1.358 and the “Luc expression in liver site, Liver site upon I.M., 6 h (ratio relative to SW-II-137-1 set as 1)” value amounted to 1.981.
On the same counts, the results for `CCCCCCCCC(CCCCCCCC)OC(=O)CCCCCCCN(CCO)CCCCCCCC(=O)OCCCCc1ccc(CCCC)cc1` [SW-II-138-1] are 1.972 and 1.430.
In the same order, the values of `CCCCCCCCC(CCCCCCCC)OC(=O)CCCCCCCN(CCO)CCCCCCCC(=O)OCCCCc1ccc(CCCCC)cc1` [SW-II-138-2] are 2.826 and 3.318.
In the case of `CCCCCCCCC(CCCCCCCC)OC(=O)CCCCCCCN(CCO)CCCCCCCC(=O)OCCCCc1ccc(CCCCCC)cc1` [SW-II-138-3], the “Luc expression in injection site, I.M. injection site, 6 h (ratio relative to SW-II-134-3 set as 1)” value is listed as 1.294 and the “Luc expression in liver site, Liver site upon I.M., 6 h (ratio relative to SW-II-137-1 set as 1)” value was 2.850.
In the same order, the values of `CCCCCCCCC(CCCCCCCC)OC(=O)CCCCCCCN(CCO)CCCCCCCC(=O)OCCc1cccc(CCCCCC)c1` [SW-II-139-1] are 1.807 and 2.355.
On the same counts, the results for `CCCCCCCCC(CCCCCCCC)OC(=O)CCCCCCCN(CCO)CCCCCCCC(=O)OCCc1cccc(CCCC)c1` [SW-II-139-2] are 1.440 and 1.355.
In the same order, the values of `CCCCCCCCC(CCCCCCCC)OC(=O)CCCCCCCN(CCO)CCCCCCCC(=O)OCCc1ccccc1CCCCCC` [SW-II-140-1] are 2.450 and 3.224.
Consider `CCCCCCCCC(CCCCCCCC)OC(=O)CCCCCCCN(CCO)CCCCCCCC(=O)OCCc1ccccc1CCCC` [SW-II-140-2], for which the “Luc expression in injection site, I.M. injection site, 6 h (ratio relative to SW-II-134-3 set as 1)” value stood at 2.257 and the “Luc expression in liver site, Liver site upon I.M., 6 h (ratio relative to SW-II-137-1 set as 1)” value came to 6.991.
